Reference: ChEMBL document CHEMBL4825753 (J Med Chem, 2021)
The source made the active and inactive calls. The calls are words filed in the database; no cut-off is given here.

Columns and labels:
[1] = biological target: T1, Receptor-type tyrosine-protein kinase FLT3 (Homo sapiens, UniProt P36888); experiment: Inhibition of FLAG-tagged FLT3 (unknown origin) transfected in Cos-7 cells assessed as phosphorylation level incubated for 1 hr by ELISA; format: cell-based
T1 sequence (P36888 whole entry): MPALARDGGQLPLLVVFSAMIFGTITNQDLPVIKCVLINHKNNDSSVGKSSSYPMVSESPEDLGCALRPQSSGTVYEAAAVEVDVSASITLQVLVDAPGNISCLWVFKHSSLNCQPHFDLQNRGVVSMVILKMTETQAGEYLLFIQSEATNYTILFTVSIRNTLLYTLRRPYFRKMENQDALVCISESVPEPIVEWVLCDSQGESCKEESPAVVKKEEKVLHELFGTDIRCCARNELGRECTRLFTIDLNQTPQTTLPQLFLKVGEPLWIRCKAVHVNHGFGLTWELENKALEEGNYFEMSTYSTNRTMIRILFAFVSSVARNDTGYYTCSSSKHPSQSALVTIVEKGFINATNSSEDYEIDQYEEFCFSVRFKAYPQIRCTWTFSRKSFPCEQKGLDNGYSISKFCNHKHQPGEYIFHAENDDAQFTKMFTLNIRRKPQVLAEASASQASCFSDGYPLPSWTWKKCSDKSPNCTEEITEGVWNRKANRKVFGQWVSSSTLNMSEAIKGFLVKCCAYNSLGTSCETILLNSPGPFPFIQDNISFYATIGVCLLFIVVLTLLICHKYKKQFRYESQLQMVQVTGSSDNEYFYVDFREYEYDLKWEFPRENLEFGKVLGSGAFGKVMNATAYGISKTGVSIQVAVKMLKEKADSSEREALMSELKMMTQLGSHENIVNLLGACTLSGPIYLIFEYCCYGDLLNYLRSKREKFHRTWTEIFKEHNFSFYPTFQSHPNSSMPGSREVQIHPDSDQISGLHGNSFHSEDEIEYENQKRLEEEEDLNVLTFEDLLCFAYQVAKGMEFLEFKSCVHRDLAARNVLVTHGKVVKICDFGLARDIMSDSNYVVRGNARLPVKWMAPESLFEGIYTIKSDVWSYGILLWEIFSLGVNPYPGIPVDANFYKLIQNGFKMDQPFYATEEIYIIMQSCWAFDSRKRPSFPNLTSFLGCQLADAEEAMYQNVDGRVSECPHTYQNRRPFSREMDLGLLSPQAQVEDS

[2] = Lipophilicity, log D of the compound at pH 7.4; format: physicochemical; details: buffer
BaF3 [3] = experiment: Growth inhibition of mouse BaF3 cells transfected with MER assessed as inhibition of cell growth incubated for 72 hrs by Cell-titer-Glo assay; format: functional
BaF3 [4] = experiment: Growth inhibition of mouse BaF3 cells transfected with AXL assessed as inhibition of cell growth incubated for 72 hrs by Cell-titer-Glo assay; format: functional
BaF3 [5] = experiment: Growth inhibition of mouse BaF3 cells transfected with FLT3 assessed as inhibition of cell growth incubated for 72 hrs by Cell-titer-Glo assay; format: functional
BaF3 [6] = experiment: Growth inhibition of mouse BaF3 cells transfected with Tyro3 assessed as inhibition of cell growth incubated for 72 hrs by Cell-titer-Glo assay; format: functional
BaF3 [7] = experiment: Growth inhibition of mouse BaF3 cells assessed as inhibition of cell growth incubated for 72 hrs by Cell-titer-Glo assay; format: functional
BaF3 [8] = experiment: Antitumour activity against mouse BaF3 cells transfected with MER implanted in C57BL/6J mouse assessed as reduction in tumour growth at 3 to 100 mg/kg, po bid for 6 days; format: functional, organism-based; details: dose 3-100 mg/kg, time 6.0 day
BaF3 [9] = experiment: Antitumour activity against mouse BaF3 cells transfected with AXL implanted in C57BL/6J mouse assessed as reduction in tumour growth at 100 mg/kg, po bid for 6 days; format: functional, organism-based; details: time 6.0 day
[10] = Fraction unbound in C57BL/6J mouse implanted with mouse BaF3 cells transfected with MER in at 3 to 100 mg/kg, po bid for 6 days; format: ADME, organism-based; details: in vivo, dose 3-100 mg/kg, time 6 day
[11] = Fraction unbound in C57BL/6J mouse implanted with mouse BaF3 cells transfected with AXL in at 3 to 100 mg/kg, po bid for 6 days; format: ADME, organism-based; details: in vivo, dose 3-100 mg/kg, time 6 day
BaF3 [12] = experiment: Antitumour activity against mouse BaF3 cells transfected with MER implanted in C57BL/6J mouse assessed as reduction in MER phosphorylation at 30 to 100 mg/kg, po bid for 6 days by western blot analysis; format: functional, organism-based; details: dose 30-100 mg/kg, time 6.0 day
BaF3 [13] = experiment: Antitumour activity against mouse BaF3 cells transfected with AXL implanted in C57BL/6J mouse assessed as reduction in AXL phosphorylation at 30 to 100 mg/kg, po bid for 6 days western blot analysis; format: functional, organism-based; details: dose 30-100 mg/kg, time 6.0 day
MC-38 = experiment: Antitumour activity against mouse MC38 cells implanted in C57BL6 mouse assessed as increase in survival at 100 mg/kg, po bid for 2 weeks co-treatment with anti-PD1 further treated with ionizing radiation; format: functional, organism-based
[14] = biological target: T2, Tyrosine-protein kinase receptor UFO (Homo sapiens, UniProt P30530); experiment: Inhibition of FLAG-tagged AXL (unknown origin) transfected in Cos-7 cells assessed as phosphorylation level incubated for 1 hr by ELISA; format: cell-based
T2 sequence (P30530 whole entry): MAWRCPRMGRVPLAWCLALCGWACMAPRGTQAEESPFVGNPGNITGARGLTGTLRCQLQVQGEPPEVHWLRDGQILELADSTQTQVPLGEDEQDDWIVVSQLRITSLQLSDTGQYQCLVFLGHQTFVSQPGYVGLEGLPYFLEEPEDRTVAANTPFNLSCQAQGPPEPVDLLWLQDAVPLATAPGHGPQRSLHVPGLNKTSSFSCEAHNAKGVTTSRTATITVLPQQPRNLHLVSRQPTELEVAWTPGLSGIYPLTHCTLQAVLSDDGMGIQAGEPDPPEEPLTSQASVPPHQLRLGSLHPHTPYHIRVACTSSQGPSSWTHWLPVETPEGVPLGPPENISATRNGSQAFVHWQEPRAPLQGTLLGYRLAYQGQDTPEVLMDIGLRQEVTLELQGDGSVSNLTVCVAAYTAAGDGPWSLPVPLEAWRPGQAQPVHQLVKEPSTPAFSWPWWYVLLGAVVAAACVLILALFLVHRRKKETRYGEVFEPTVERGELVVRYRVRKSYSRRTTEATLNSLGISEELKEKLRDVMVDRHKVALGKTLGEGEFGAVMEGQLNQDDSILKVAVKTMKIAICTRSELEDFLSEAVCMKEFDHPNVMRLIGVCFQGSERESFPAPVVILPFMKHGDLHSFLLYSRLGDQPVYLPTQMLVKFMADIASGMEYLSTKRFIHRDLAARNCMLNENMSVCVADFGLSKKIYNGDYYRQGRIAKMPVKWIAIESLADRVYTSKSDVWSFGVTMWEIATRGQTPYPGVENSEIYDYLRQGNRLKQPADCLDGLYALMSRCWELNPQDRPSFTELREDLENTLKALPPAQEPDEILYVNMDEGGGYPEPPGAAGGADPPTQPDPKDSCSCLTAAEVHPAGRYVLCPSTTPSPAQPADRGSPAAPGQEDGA

[15] = biological target: T3, Tyrosine-protein kinase receptor TYRO3 (Homo sapiens, UniProt Q06418); experiment: Inhibition of FLAG-tagged Tyro3 (unknown origin) transfected in Cos-7 cells assessed as phosphorylation level incubated for 1 hr by ELISA; format: cell-based
T3 sequence (Q06418 whole entry): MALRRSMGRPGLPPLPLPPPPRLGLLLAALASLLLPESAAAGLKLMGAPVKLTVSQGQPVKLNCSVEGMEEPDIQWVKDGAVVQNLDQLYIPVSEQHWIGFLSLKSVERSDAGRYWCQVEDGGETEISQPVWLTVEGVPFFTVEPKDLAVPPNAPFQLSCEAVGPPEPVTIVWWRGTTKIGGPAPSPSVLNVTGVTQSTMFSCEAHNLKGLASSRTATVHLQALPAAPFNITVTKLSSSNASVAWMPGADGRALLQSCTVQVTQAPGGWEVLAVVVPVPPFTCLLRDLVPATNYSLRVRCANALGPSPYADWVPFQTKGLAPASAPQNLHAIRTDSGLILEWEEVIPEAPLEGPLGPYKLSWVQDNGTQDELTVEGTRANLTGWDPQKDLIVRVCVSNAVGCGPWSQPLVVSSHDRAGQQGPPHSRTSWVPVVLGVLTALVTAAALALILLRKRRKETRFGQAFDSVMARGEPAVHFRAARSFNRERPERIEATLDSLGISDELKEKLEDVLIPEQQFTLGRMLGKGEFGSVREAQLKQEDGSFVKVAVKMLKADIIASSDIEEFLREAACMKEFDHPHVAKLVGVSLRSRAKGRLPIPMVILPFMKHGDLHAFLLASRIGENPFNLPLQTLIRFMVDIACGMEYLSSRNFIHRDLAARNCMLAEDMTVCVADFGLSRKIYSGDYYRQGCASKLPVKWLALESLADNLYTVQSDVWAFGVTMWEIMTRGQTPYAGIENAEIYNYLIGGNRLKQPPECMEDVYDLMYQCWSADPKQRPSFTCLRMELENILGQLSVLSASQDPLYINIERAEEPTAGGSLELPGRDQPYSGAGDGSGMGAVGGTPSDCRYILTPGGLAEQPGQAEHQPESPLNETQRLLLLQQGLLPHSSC

[16] = Induction efferocytosis in human PBMC assessed as CD14-positive monocytes
[17] = Photostability of compound assessed as half life; format: physicochemical

SMILES	IC50 [1] [µM]	logD [2]	IC50 [14] [µM]	IC50 [15] [µM]	pIC50 [16]	half-life [17] [days]	further results
CN1CCN(Cc2ccc(-c3ccc(CO[C@H]4CCC[C@@H]4NC(=O)c4cc(-c5cnn(C)c5)cnc4N)cc3)cc2)CC1	10	2.8	–	–	–	–	GI50 (BaF3 [3]): 0.00794 µM; GI50 (BaF3 [4]): 0.0501 µM; GI50 (BaF3 [5]): 5.01 µM; GI50 (BaF3 [6]): 3.16 µM; GI50 (BaF3 [7]): 12.6 µM; Activity (BaF3 [8]): Active; Activity (BaF3 [9]): Active; fraction unbound at 144 h [10]: 0.14; fraction unbound at 144 h [11]: 0.14; Activity (BaF3 [12]): Active; Activity (BaF3 [13]): Active; Activity (MC-38): Active
Cc1cc(-c2c(C)nn(C)c2C)ccc1-c1nnc(N(C)Cc2ccc3ncc(-c4cnn(CCN(C)C)c4)n3c2)o1	> 31.6	3.5	0.126	12.6	7.8	–	–
Cc1cc(-c2c(C)nn(C)c2C)ccc1-c1nnc(N(C)Cc2ccc3ncc(C(=O)N(C)C)n3c2)o1	10	3.3	0.398	25.1	7.1	17.8	–
Cc1cc(-c2c(C)nn(C)c2C)ccc1-c1nnc(N(C)Cc2ccc3ncc(C4CCN(C)CC4)n3c2)o1	> 31.6	2.5	1.26	> 31.6	6.9	–	–
Cc1cc(-c2c(C)nn(C)c2C)ccc1-c1nnc(N(C)Cc2ccc3ncc(-c4cnn(C)c4)n3c2)o1	12.6	4	0.0631	12.6	7.2	11.4	–
Cc1cc(-c2c(C)nn(C)c2C)cnc1-c1nnc(N(C)Cc2ccc3ncc(-c4cnn(CCN(C)C)c4)n3c2)o1	> 31.6	2.7	1	> 31.6	7.1	–	–

Now from value to molecule, other results behind:

IC50 [1] [µM]	logD [2]	IC50 [14] [µM]	IC50 [15] [µM]	pIC50 [16]	half-life [17] [days]	SMILES	further results
> 31.6	2.5	1.58	> 31.6	–	–	Cc1cc(-c2c(C)nn(C)c2C)cnc1-c1nnc(N(C)Cc2ccc3ncc(-c4ccc(CN(C)C)nc4)n3c2)o1	–
7.94	5.3	0.2	20	6.7	11.4	Cc1cc(-c2c(C)nn(C)c2C)ccc1-c1nnc(N(C)Cc2ccc3ncc(-c4ccccc4)n3c2)o1	–
> 31.6	3	0.316	> 31.6	7	–	Cc1cc(-c2c(C)nn(C)c2C)cnc1-c1nnc(N(C)Cc2ccc3ncc(-c4cccc(CN(C)C)c4)n3c2)o1	–
25.1	3	0.126	> 31.6	7.2	–	Cc1cc(-c2c(C)nn(C)c2C)cnc1-c1nnc(N(C)Cc2ccc3ncc(-c4ccc(CN(C)C)cn4)n3c2)o1	–
